Test results taken from ChEMBL document CHEMBL1201862, “PubChem BioAssay data set” (2004).
Counter-ions that a name gives are not always drawn. Activity calls are given as the source filed them.

Key:
[1] = biological target: T1, Heat shock factor protein 1 (Mus musculus, UniProt P38532); assay: inhibition of MG132-induced HSE-luciferase signal, confirmation, cell-based, NIH3T3, luminescence, dose retest (AID 2382); format: functional;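 note: NIH3T3 fibroblasts with HSF1-driven luciferase reporter stressed by proteasome inhibitor MG132; luminescence from HSF1-driven luciferase expression after 8 hours of MG132 stress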
T1 sequence (P38532 whole entry): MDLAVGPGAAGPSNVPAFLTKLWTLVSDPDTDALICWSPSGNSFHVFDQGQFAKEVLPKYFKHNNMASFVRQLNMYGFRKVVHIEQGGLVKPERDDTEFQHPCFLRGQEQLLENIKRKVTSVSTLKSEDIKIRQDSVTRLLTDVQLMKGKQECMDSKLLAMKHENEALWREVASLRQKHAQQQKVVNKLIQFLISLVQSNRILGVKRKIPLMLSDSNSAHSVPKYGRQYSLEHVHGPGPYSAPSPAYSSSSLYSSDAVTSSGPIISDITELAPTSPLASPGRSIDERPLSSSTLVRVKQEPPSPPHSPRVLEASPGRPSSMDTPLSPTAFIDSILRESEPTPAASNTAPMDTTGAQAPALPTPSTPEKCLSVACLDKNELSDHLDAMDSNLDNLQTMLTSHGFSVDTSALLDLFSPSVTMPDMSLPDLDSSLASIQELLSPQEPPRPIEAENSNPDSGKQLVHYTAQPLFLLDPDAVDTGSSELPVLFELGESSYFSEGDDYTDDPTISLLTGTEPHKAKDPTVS

[2] = biological target: Cytochrome P450 2C9 (Homo sapiens, UniProt P11712)
Chain of Cytochrome P450 2C9 (P11712 whole entry): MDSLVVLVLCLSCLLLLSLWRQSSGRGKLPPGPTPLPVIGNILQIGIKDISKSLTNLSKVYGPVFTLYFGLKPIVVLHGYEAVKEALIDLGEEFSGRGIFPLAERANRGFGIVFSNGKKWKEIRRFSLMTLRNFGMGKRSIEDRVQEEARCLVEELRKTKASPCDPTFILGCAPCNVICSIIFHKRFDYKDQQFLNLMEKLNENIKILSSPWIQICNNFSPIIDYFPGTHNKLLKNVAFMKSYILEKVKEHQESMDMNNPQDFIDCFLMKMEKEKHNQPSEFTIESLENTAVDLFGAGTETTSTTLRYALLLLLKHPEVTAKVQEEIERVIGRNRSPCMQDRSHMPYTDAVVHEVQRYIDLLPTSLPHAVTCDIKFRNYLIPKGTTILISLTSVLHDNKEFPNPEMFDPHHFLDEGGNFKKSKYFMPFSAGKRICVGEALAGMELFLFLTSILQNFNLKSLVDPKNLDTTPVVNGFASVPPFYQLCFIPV

[3] = biological target: T2, Cytochrome P450 1A2 (Homo sapiens, UniProt P05177);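 note: PubChem cytochrome P450 panel assay, CYP1A2 panel member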
T2 sequence (P05177 whole entry): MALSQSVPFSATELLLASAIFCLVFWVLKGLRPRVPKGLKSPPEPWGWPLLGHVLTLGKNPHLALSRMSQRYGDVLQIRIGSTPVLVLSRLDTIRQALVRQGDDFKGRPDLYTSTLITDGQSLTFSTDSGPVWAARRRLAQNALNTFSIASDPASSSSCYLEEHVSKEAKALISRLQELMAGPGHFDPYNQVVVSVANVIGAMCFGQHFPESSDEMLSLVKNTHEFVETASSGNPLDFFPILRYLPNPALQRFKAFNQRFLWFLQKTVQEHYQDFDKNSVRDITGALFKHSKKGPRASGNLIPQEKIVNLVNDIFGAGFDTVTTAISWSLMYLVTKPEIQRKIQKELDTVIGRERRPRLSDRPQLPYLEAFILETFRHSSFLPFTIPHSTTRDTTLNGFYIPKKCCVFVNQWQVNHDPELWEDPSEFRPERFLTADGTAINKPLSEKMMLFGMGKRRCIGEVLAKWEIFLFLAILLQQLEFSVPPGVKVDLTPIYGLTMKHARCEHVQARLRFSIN

[4] = biological target: Cytochrome P450 2C19 (Homo sapiens, UniProt P33261); assay: Cytochrome panel assay with activity outcomes. Panel member name: p450-cyp2c19 Compounds with AC50 equal or less than 10 uM are considered active; format: functional; conditions: read-out: AC50
Chain of Cytochrome P450 2C19 (P33261 whole entry): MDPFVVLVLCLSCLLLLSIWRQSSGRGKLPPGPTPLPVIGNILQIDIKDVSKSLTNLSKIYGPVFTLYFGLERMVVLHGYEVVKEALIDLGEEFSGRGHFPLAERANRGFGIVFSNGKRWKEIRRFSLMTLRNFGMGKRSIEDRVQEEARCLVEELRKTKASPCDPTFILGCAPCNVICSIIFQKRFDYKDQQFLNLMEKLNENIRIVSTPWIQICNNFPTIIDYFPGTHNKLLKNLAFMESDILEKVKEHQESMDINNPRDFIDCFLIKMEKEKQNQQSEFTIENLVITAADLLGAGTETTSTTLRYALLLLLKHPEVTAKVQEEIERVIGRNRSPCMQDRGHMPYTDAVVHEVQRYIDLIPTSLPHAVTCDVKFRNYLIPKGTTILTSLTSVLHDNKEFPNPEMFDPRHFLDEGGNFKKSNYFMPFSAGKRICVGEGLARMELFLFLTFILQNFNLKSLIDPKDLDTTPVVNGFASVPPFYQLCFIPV

[5] = biological target: T3, Protein RecA (Mycobacterium tuberculosis, UniProt P9WHJ3); assay: Fluorescence Cell-Free Homogeneous Dose Retest to Identify Inhibitors of RecA-Intein Splicing Activity. [Related pubchem assays (depositor defined):AID2097, AID2223, AID489010, AID492950]; format: functional
T3 sequence (P9WHJ3 whole entry): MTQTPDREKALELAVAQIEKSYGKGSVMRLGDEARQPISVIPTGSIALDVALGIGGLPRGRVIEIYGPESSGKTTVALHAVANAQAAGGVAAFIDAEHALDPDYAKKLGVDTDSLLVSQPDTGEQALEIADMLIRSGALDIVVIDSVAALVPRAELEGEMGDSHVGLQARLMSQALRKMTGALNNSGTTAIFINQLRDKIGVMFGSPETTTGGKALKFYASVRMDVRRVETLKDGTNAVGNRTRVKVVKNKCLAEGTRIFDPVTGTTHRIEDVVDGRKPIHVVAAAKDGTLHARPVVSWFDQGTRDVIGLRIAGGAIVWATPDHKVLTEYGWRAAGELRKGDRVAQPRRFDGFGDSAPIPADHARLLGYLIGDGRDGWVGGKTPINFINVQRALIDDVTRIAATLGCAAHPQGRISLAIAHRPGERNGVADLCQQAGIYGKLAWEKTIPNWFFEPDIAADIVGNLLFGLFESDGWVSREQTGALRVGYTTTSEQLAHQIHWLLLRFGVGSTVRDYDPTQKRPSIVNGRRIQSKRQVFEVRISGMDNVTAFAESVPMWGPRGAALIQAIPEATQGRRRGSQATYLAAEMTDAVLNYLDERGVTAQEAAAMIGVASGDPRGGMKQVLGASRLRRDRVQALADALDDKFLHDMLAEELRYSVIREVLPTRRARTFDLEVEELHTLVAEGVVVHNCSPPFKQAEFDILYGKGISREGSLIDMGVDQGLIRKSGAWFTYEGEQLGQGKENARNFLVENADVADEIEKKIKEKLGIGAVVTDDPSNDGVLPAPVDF

[6] = biological target: T4, Replicative DNA helicase DnaB (Mycobacterium tuberculosis, UniProt P9WMR3); assay: DnaB intein splicing inhibitors, dose response, biochemical, cell-free fluorescence (AID 449749); format: functional
T4 sequence (P9WMR3 whole entry): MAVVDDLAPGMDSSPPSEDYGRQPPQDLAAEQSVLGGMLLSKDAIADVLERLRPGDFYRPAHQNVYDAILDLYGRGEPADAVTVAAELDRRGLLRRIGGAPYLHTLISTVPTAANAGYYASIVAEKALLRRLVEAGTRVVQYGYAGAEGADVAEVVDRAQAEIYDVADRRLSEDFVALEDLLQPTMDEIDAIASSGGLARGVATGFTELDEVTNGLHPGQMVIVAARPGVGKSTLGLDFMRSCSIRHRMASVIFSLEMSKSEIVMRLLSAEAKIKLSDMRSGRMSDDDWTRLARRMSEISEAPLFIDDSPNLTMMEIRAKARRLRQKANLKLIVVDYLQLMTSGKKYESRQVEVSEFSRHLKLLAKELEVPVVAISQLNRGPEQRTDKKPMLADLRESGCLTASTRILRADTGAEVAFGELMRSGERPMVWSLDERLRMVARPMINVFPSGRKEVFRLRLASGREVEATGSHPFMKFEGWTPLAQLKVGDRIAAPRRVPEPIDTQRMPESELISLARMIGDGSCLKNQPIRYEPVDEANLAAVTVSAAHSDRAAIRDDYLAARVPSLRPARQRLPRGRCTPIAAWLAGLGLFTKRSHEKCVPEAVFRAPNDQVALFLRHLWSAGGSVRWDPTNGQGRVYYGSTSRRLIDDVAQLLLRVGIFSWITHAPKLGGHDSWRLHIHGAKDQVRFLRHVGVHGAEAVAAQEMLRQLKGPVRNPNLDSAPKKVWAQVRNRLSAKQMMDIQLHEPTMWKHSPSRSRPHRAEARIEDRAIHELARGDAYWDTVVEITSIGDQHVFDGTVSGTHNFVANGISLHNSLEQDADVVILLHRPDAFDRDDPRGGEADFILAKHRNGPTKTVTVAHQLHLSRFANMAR

[7] = C. albicans growth with fluconazole, confirmation, fluorescence, retest (AID 2467); format: functional, cell-based
[8] = NIH-3T3 fibroblast cytotoxicity, dose response, cytotoxicity control, cell-based, fluorescence, Alamar Blue, secondary assay (AID 2327); format: functional;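 note: NIH-3T3 mouse fibroblasts cultured with fluconazole at 8 µg/mL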
[9] = tested on: Streptococcus; assay: Group A Streptococcus viability loss, dose response, counter-screen for streptokinase expression inhibitor project, luminescence, BacTiterGlo (AID 1915); format: functional, organism-based; conditions: read-out: EC50;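 note: potency for reduction of bacterial viability or growth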
[10] = tested on: Streptococcus sp. 'group A'; assay: growth inhibition of control SK(-) GAS strain, dose response, counter-screen for streptokinase expression inhibitor project, luminescence, kanamycin, BacTiterGlo, confirmation (AID 1900); format: functional, organism-based
[11] = biological target: Cytochrome P450 3A4 (Homo sapiens, UniProt P08684);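 note: CYP3A4 tested as one member of a cytochrome P450 panel screen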
Chain of Cytochrome P450 3A4 (P08684 whole entry): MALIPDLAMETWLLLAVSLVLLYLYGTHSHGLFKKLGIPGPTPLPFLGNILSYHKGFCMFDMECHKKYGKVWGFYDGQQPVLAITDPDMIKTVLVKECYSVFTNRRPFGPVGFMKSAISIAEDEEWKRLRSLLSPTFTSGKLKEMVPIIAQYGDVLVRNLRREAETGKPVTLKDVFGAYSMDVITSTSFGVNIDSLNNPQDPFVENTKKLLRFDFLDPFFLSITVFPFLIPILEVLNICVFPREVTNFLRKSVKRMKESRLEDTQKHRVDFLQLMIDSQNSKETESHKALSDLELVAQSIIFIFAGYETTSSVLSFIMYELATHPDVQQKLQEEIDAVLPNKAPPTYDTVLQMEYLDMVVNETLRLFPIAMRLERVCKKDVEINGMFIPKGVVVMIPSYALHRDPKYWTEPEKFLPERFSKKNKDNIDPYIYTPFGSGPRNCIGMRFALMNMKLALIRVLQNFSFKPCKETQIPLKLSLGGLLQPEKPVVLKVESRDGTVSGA

CCN1CCN(c2cc(C)c3cc(NC(=S)N4CCCC(C)C4)ccc3n2)CC1 (configuration not stated)
EC50 [1]: 11 µM (active)

O=C(O)c1cc(S(=O)(=O)Nc2ccc3c(c2)OCCO3)c(Cl)cc1Cl
EC50 [1]: 2.54 µM (active)

Cc1noc(NS(=O)(=O)c2ccc(N3Cc4ccccc4C3=O)cc2)c1C
EC50 [1]: > 195 µM (not active)

COC(=O)N1CCC[C@@]2(CCN(C(c3ccccc3)c3ccccc3)C2)C1
AC50 [2]: 25.1 µM (inconclusive) | AC50 [3]: 12.6 µM (inconclusive) | AC50 [4]: 39.8 µM (inconclusive)

CCNc1ncc2nc(CCc3ccccc3)c(=O)n(Cc3ccc(F)cc3)c2n1
AC50 [3]: 3.16 µM (inconclusive)

COc1ccccc1N(C)S(=O)(=O)c1ccc(C(=O)NC(C)c2ccccc2)cc1 (configuration not stated)
EC50 [1]: > 195 µM (not active)

O=C(CC1C(=O)NCCN1Cc1ccccc1F)NC1CCCCCC1 (configuration not stated)
EC50 [1]: 24.1 µM (active)

COc1ccc(-c2csc(Nc3ccc(O)cc3)n2)cc1
EC50 [5]: 123 µM (active) | AC50 [6]: 37.2 µM (active)

O=C(Nc1ccccc1)OCN1C(=O)c2ccccc2C1=O
EC50 [7]: > 38 µM (not active) | EC50 [8]: > 150 µM (inactive)

Cc1ccc2nc(O)c(CN(C(=O)c3cccc([N+](=O)[O-])c3)C(C)C)cc2c1
EC50 [1]: > 195 µM (not active)

COc1ccc(C(=O)NCCN2CCOCC2)c(OC)c1OC
EC50 [7]: > 38 µM (not active) | EC50 [8]: > 150 µM (inactive)

COc1cccc2c(=O)n(CC(=O)NCCc3ccccc3)ccc12
EC50 [1]: > 195 µM (not active)

O=C(CCS(=O)(=O)c1cccc2nsnc12)N1CCN(C(=O)c2ccco2)CC1
EC50 [7]: > 38 µM (not active) | EC50 [8]: > 160 µM (inactive)

CC1=NNC(=O)C1C(c1cccc(O)c1)C(C#N)C#N (configuration not stated)
EC50 [5]: 12.7 µM (active) | AC50 [6]: 28.3 µM (active)

CC(C)c1ccc(NC(=O)Nc2cc3sccc3n2C)cc1
EC50 [1]: > 195 µM (not active)

Cc1ccc2c(ccc[n+]2CC(=O)c2ccccc2)c1
EC50 [7]: > 38 µM (not active) | EC50 [8]: > 150 µM (inactive)

Cc1oc(-c2cccs2)nc1CN1CCN(Cc2ccc(F)c(F)c2)C(CCO)C1 (configuration not stated)
EC50 [7]: > 38 µM (not active) | EC50 [8]: > 150 µM (inactive)

O=C(NC1C(=O)NNC1c1ccc(Cl)cc1)c1ccc(F)cc1 (configuration not stated)
EC50 [5]: 4.94 µM (active) | AC50 [6]: 13.1 µM (active)

CC(=O)NC(=S)c1c(N)n(Cc2ccccc2)c(=O)n(C)c1=O
EC50 [5]: > 380 µM (inconclusive) | AC50 [6]: > 380 µM (inactive)

O=C(O)Cn1c(=O)c2c3c(sc2n(Cc2ccc(Cl)cc2Cl)c1=O)CCCC3
EC50 [1]: > 195 µM (not active)

Cc1cc(C(=O)c2ccccc2)c(NC(=O)CCl)s1
EC50 [5]: 2.83 µM (active) | AC50 [6]: 14.2 µM (active)

COc1ccccc1CNCC(O)(c1ccc(Cl)cc1)c1ccc(Cl)cc1
AC50 [3]: 10 µM (inconclusive)

Cc1cc(S(=O)(=O)N2CCCC2)ccc1OCC(=O)NCc1ccccc1
EC50 [1]: > 195 µM (not active)

Cc1cc(C)c(C#N)c(SCC(=O)NC(C)(C)C)n1
EC50 [1]: > 195 µM (not active)

Cc1cccc(-n2nc(C(=O)c3ccco3)cc(-c3nc4ccccc4[nH]3)c2=N)c1
EC50 [9]: 5.95 µM (active) | EC50 [7]: > 38 µM (not active) | EC50 [10]: 2.49 µM (active) | EC50 [8]: > 160 µM (inactive)

COCC(=O)N1CCC2(CC1)CN(Cc1cc(C(F)(F)F)cc(C(F)(F)F)c1)C2
AC50 [2]: 12.6 µM (inconclusive) | AC50 [3]: 25.1 µM (inconclusive) | AC50 [4]: 20 µM (inconclusive)

CCCCSC1=C(C#N)C(c2ccccc2C)CC(=O)N1 (configuration not stated)
EC50 [1]: > 195 µM (not active)

CSc1ccc(/C=C/C(=O)Nc2ccccc2)cc1
EC50 [7]: > 38 µM (not active) | EC50 [8]: > 150 µM (inactive)

O=C(CCCCCN1C(=O)c2ccccc2C1=O)NCc1ccccn1
AC50 [2]: 31.6 µM (inconclusive) | AC50 [3]: 14.1 µM (inconclusive) | AC50 [11]: 25.1 µM (inconclusive)

CC(C)CNS(=O)(=O)c1ccc(CCC(=O)N2CCOCC2)cc1
EC50 [1]: > 195 µM (not active)

COC(=O)c1ccc2c(=O)n(-c3ccccc3)c(=S)[nH]c2c1
EC50 [1]: > 195 µM (not active)

Clc1cccc(N/N=C/c2ccncc2)c1
EC50 [7]: > 38 µM (not active) | EC50 [8]: > 160 µM (inactive)

CCOC(=O)C(CC)/C(C)=N\NC(=O)c1ccccc1O (configuration not stated)
EC50 [7]: > 38 µM (not active) | EC50 [8]: > 160 µM (inactive)

COCCCC/C(=N\OCCN)c1ccc(C(F)(F)F)cc1 [FLUVOXAMINE MALEATE]
EC50 [1]: > 195 µM (not active)

CN(C)CCCc1cc(C(=O)Nc2ccc(-c3ccncc3)cc2)ccc1O [GR-55562]
AC50 [3]: 39.8 µM (inconclusive) | AC50 [4]: 31.6 µM (inconclusive) | AC50 [11]: 1.26 µM (inconclusive)

CN[C@H](CC(=O)O)C(=O)O [N-METHYL-D-ASPARTIC ACID (NMDA)]
AC50 [3]: 39.8 µM (inconclusive)

CCCCCCCCCCCCCCCC[N+](C)(C)CCN(Cc1ccc(OC)cc1)c1ncccn1 [THONZONIUM]
AC50 [2]: 15.8 µM (inconclusive) | AC50 [3]: 20 µM (inconclusive)
